Results: patent publication US6696417B1, “Skin and hair darkening composition” (Chesebrough-Pond's USA Co., division of Conopco, Inc., priority 1997, dated 2004)

Legend:
tyrosinase [1] = assay: In vitro enhancement of melanin formation (Example 3); format: biochemical; details: 18 nmoles polyamino acid; DL-DOPA, 20 nmoles lysozyme, 0.45 mg tyrosinase, acetate buffer pH 5.0; absorbance at 400 nm; control 0.120
Description: (§1) The assay conditions for the formation of melanin under in vitro conditions are as follows.
The control assay mixture contained 5 mmoles of DL-DOPA (Dihydroxy phenyl alanine), lysozyme 20 nmoles and 0.45 mg of tyrosinase in acetate buffer pH 5.0 in a test tube. In the experimental set 18 nmoles of the polyglutamate, a polyamino acid sequence with pI 2.5 or polyarginine pI 10.9 or polylysine pI 11.0 was used in addition to the other ingredients as defined in the control. The melanin formed was washed with the buffer, suspended in 1 N sodium hydroxide and dissolved by heating the sample at 60° C. for 5 minutes. The absorbance was measured at 400 nm.

tyrosinase [2] = assay: In vitro enhancement of melanin formation (Example 1); format: biochemical
Excerpt: as §1
The control assay mixture contained 5 pmoles of DL-DOPA (Dihydroxy phenyl alanine), 20nmoles lysozyme and 3.2 units of tyrosinase in acetate buffer pH 5.0 in a test tube. A unit is defined as the amount of tyrosinase needed to convert 1 nmol DOPA in one minute. In the experimental set 11 nmoles of polylysine, a polyamino acid sequence with pI 11.0, was used in addition to the other ingredients as defined in the control. The melanin formed was washed with the acetate buffer, suspended in 1N sodium hydroxide and dissolved by heating the sample at 60° C. for 5 minutes. The absorbance was measured at 400 nm.

| Melanin formed A 400 (tyrosinase [1]) | Substance | Melanin formed A 400 (tyrosinase [2]; 11 nmoles polyamino acid, DL-DOPA, 20 nmoles lysozyme, 3.2 units tyrosinase, acetate buffer pH 5.0, absorbance at 400 nm, control 0.120) | melanin production (in words) (tyrosinase [2]; in presence of polylysine versus control, pH 5) |
| --- | --- | --- | --- |
| 0.048 | polyglutamate [reference compound] | – | – |
| 0.182 | polyarginine | – | – |

| Substance | Melanin formed A 400 (tyrosinase [1]) | Melanin formed A 400 (tyrosinase [2]; 11 nmoles polyamino acid, DL-DOPA, 20 nmoles lysozyme, 3.2 units tyrosinase, acetate buffer pH 5.0, absorbance at 400 nm, control 0.120) | melanin production (in words) (tyrosinase [2]; in presence of polylysine versus control, pH 5) |
| --- | --- | --- | --- |
| polylysine | 0.168 | 0.168 | significantly enhanced |
